Data as given in the supplement of paper PMC10627819.

Legend:
Assay in all cases: fitness (endpoint OD595 vs no drug) (fraction); higher = more growth
S. pneumoniae D39V = system: S. pneumoniae D39V
How it was run: (§1)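 Plates with 384 wells were inoculated at OD595 0.01 using 30 µl of TSB, LB Lennox or CY, or 55 µl for S. pneumoniae. Incubation was at 37 °C, with OD595 measured every 30 min for 14 h. Fitness is the stationary-phase transition optical density over the robust mean of no-drug control wells, after first-reading background subtraction; it is capped at 1.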

S. aureus DSM 20231 = system: S. aureus DSM 20231
How it was run: as §1

S. aureus Newman = system: S. aureus Newman
How it was run: as §1

CCC[C@@H]1C[C@@H](C(=O)N[C@@H]([C@H]2O[C@H](SC)[C@H](O)[C@@H](O)[C@H]2O)[C@@H](C)O)N(C)C1 [Lincomycin] + CO[C@@]12[C@H](COC(N)=O)C3=C(C(=O)C(C)=C(N)C3=O)N1C[C@@H]1N[C@@H]12 [Mitomycin C]
Settings	fitness
S. aureus DSM 20231, first compound 0.1 µg/mL, partner 0.0156 µg/mL	0.645
S. aureus DSM 20231, first compound 0.1 µg/mL, partner 0.0312 µg/mL	0.651
S. aureus DSM 20231, first compound 0.1 µg/mL, partner 0.0625 µg/mL	0.502
S. aureus DSM 20231, first compound 0.2 µg/mL, partner 0.0156 µg/mL	0.613
S. aureus DSM 20231, first compound 0.2 µg/mL, partner 0.0312 µg/mL	0.567
S. aureus DSM 20231, first compound 0.2 µg/mL, partner 0.0625 µg/mL	0.383
S. aureus DSM 20231, first compound 0.4 µg/mL, partner 0.0156 µg/mL	0.217
S. aureus DSM 20231, first compound 0.4 µg/mL, partner 0.0312 µg/mL	0.199
S. aureus DSM 20231, first compound 0.4 µg/mL, partner 0.0625 µg/mL	0.108
S. pneumoniae D39V, first compound 0.2 µg/mL, partner 0.001075 µg/mL	0.679
S. pneumoniae D39V, first compound 0.2 µg/mL, partner 0.00215 µg/mL	0.69
S. pneumoniae D39V, first compound 0.2 µg/mL, partner 0.0043 µg/mL	0.603
S. pneumoniae D39V, first compound 0.215 µg/mL, partner 0.002 µg/mL	0.709
S. pneumoniae D39V, first compound 0.215 µg/mL, partner 0.004 µg/mL	0.73
S. pneumoniae D39V, first compound 0.215 µg/mL, partner 0.008 µg/mL	0.657
S. pneumoniae D39V, first compound 0.4 µg/mL, partner 0.001075 µg/mL	0.605
S. pneumoniae D39V, first compound 0.4 µg/mL, partner 0.00215 µg/mL	0.609
S. pneumoniae D39V, first compound 0.4 µg/mL, partner 0.0043 µg/mL	0.497
S. pneumoniae D39V, first compound 0.43 µg/mL, partner 0.002 µg/mL	0.615
S. pneumoniae D39V, first compound 0.43 µg/mL, partner 0.004 µg/mL	0.614
S. pneumoniae D39V, first compound 0.43 µg/mL, partner 0.008 µg/mL	0.514
S. pneumoniae D39V, first compound 0.8 µg/mL, partner 0.001075 µg/mL	0.221
S. pneumoniae D39V, first compound 0.8 µg/mL, partner 0.00215 µg/mL	0.218
S. pneumoniae D39V, first compound 0.8 µg/mL, partner 0.0043 µg/mL	0.131
S. pneumoniae D39V, first compound 0.86 µg/mL, partner 0.002 µg/mL	0.246
S. pneumoniae D39V, first compound 0.86 µg/mL, partner 0.004 µg/mL	0.258
S. pneumoniae D39V, first compound 0.86 µg/mL, partner 0.008 µg/mL	0.266

COc1c(N2C[C@@H]3CCCN[C@@H]3C2)c(F)cc2c(=O)c(C(=O)O)cn(C3CC3)c12 [Moxifloxacin] + CC1(C)S[C@@H]2[C@H](NC(=O)Cc3ccccc3)C(=O)N2[C@H]1C(=O)O [Penicillin G]
fitness, S. aureus Newman
Settings	first compound 0.0075 µg/mL	first compound 0.015 µg/mL	first compound 0.03 µg/mL
partner 0.0195 µg/mL	0.722	0.625	0.081
partner 0.039 µg/mL	0.706	–	0.059
partner 0.078 µg/mL	0.721	0.596	0.0633

C/C(=C\C(=O)OCCCCCCCCC(=O)O)C[C@@H]1OC[C@H](C[C@@H]2O[C@H]2[C@@H](C)[C@H](C)O)[C@@H](O)[C@H]1O [Pseudomonic acid] + CC1(C)S[C@@H]2[C@H](NC(=O)Cc3ccccc3)C(=O)N2[C@H]1C(=O)O [Penicillin G]
fitness, S. aureus Newman, one replicate
Settings	first compound 0.0313 µg/mL	first compound 0.0625 µg/mL	first compound 0.125 µg/mL
partner 0.0195 µg/mL	0.0428	0.0466	0.0353
partner 0.039 µg/mL	0.0545	0.0468	0.0403
partner 0.078 µg/mL	0.069	0.0571	0.0351

C/C(=C\C(=O)OCCCCCCCCC(=O)O)C[C@@H]1OC[C@H](C[C@@H]2O[C@H]2[C@@H](C)[C@H](C)O)[C@@H](O)[C@H]1O [Pseudomonic acid] + CCN(CC)CCOC(=O)c1ccc(N)cc1 [Procaine]
fitness, S. pneumoniae D39V
Settings	first compound 0.03 µg/mL	first compound 0.06 µg/mL	first compound 0.12 µg/mL
partner 85.5 µg/mL	0.867	0.69	0.587
partner 171 µg/mL	0.92	0.762	0.581
partner 342 µg/mL	0.878	0.716	0.583

fitness, S. aureus Newman, one replicate
Settings	first compound 0.0313 µg/mL	first compound 0.0625 µg/mL	first compound 0.125 µg/mL
partner 85.5 µg/mL	0.0858	0.046	0.0525
partner 171 µg/mL	0.0636	0.045	0.0572
partner 342 µg/mL	0.0723	0.0522	0.0551

C/C(=C\C(=O)OCCCCCCCCC(=O)O)C[C@@H]1OC[C@H](C[C@@H]2O[C@H]2[C@@H](C)[C@H](C)O)[C@@H](O)[C@H]1O [Pseudomonic acid] + COc1c(N2C[C@@H]3CCCN[C@@H]3C2)c(F)cc2c(=O)c(C(=O)O)cn(C3CC3)c12 [Moxifloxacin]
fitness, S. pneumoniae D39V
Settings	partner 0.0037 µg/mL	partner 0.005 µg/mL	partner 0.0075 µg/mL	partner 0.01 µg/mL	partner 0.015 µg/mL	partner 0.02 µg/mL
first compound 0.03 µg/mL	0.635	0.929	0.839	0.975	0.806	0.982
first compound 0.06 µg/mL	0.49	0.834	0.715	0.876	0.692	0.869
first compound 0.12 µg/mL	0.357	0.609	0.534	0.662	0.539	0.671

fitness, S. aureus Newman, one replicate
Settings	first compound 0.0313 µg/mL	first compound 0.0625 µg/mL	first compound 0.125 µg/mL
partner 0.0075 µg/mL	0.0642	0.025	0.0349
partner 0.015 µg/mL	0.0514	0.0242	0.0408
partner 0.03 µg/mL	0.0387	0.0144	0.0169

C/C(=C\C(=O)OCCCCCCCCC(=O)O)C[C@@H]1OC[C@H](C[C@@H]2O[C@H]2[C@@H](C)[C@H](C)O)[C@@H](O)[C@H]1O [Pseudomonic acid] + C[n+]1ccc(-c2cc[n+](C)cc2)cc1 [Paraquat]
fitness, S. pneumoniae D39V
Settings	partner 1.5 µg/mL	partner 3 µg/mL	partner 6 µg/mL
first compound 0.03 µg/mL	0.988	0.919	0.931
first compound 0.06 µg/mL	0.837	0.78	0.779

fitness, S. aureus Newman, one replicate
Settings	first compound 0.0313 µg/mL	first compound 0.0625 µg/mL	first compound 0.125 µg/mL
partner 1.25 µg/mL	0.0626	0.028	0.0553
partner 2.5 µg/mL	0.0649	0.0373	0.0338
partner 5 µg/mL	0.082	0.0355	0.0668

C/C(=C\C(=O)OCCCCCCCCC(=O)O)C[C@@H]1OC[C@H](C[C@@H]2O[C@H]2[C@@H](C)[C@H](C)O)[C@@H](O)[C@H]1O [Pseudomonic acid] + Cc1onc(-c2ccccc2)c1C(=O)N[C@@H]1C(=O)N2[C@@H]1SC(C)(C)[C@@H]2C(=O)O [Oxacillin]
fitness, S. pneumoniae D39V
Settings	first compound 0.03 µg/mL	first compound 0.06 µg/mL	first compound 0.12 µg/mL
partner 0.01 µg/mL	0.948	0.835	0.589
partner 0.02 µg/mL	0.95	0.819	0.562
partner 0.04 µg/mL	–	0.717	0.424

fitness, S. aureus Newman, one replicate
Settings	first compound 0.0313 µg/mL	first compound 0.0625 µg/mL	first compound 0.125 µg/mL
partner 0.0156 µg/mL	0.058	0.0445	0.0455
partner 0.0312 µg/mL	0.0524	0.0435	0.0505
partner 0.0625 µg/mL	0.0522	0.0224	0.0295

COc1cc(Cc2cnc(N)nc2N)cc(OC)c1OC [Trimethoprim] + Cn1nnc(-c2ccc(-c3ccc(N4C[C@H](CO)OC4=O)cc3F)cn2)n1 [Tedizolid]
S. aureus DSM 20231, first compound 0.125 µg/mL, one replicate
Settings	fitness
partner 0.0625 µg/mL	0.846
partner 0.125 µg/mL	0.575
partner 0.25 µg/mL	0.289

fitness, S. aureus DSM 20231
Settings	first compound 0.25 µg/mL	first compound 0.5 µg/mL	first compound 1 µg/mL
partner 0.0625 µg/mL	0.623	–	0.0355
partner 0.125 µg/mL	0.689	0.519	0.0418
partner 0.25 µg/mL	0.502	0.39	0.192
